Measurements: patent US6326395A, “Antifungal activity of dicationic molecules” (priority 1999, dated 2001)
Where a name gives a salt, the structure may show the parent alone.

Legend:
Assay in all cases: antifungal susceptibility testing (MIC, MFC), extended spectrum
C. albicans 102.96 = assay type: cell-based, Candida albicans; conditions: Candida albicans, C. albicans 102.96, fluconazole-resistant
From the text: (§1) Antifungal susceptibility testing for compounds set forth in Examples 1-20 is discussed hereinbelow. The fungi that were employed included two reference strains, C. neoformans var. neoformans H99 and C. albicans A39 and the following clinical isolates: (1) two strains of fluconazole-resistant C. neoformans var. neoformans (135.95 and 114.96); (2) two strains of C. neoformans var. gattii (119.95 and 114.95); (3) two strains of fluconazole-resistant C. albicans (102.96 and 103.96); and (4) one strain each of Torulopsis glabrata (142.91), Candida parapsilosis (111.96), Candida krusei (132.91), C. tropicalis (110.96), Candida lusitaniae (111.92), Fusarium solani (152.89), Aspergillus fumigatus (168.95), and Aspergillus flavus (112.96). Antifungal susceptibility testing was performed using an RPMI-1640 medium (Sigma Chemical Co., St. Louis, Mo.) with glutamine, without sodium bicarbonate, and buffered at pH 7.0 with 0.165 M morpholine-propanesulfonic acid (MOPS).
(§2) In vitro susceptibility testing in the form of Minimum Inhibitory Concentration (MIC) experiments were performed using the broth macrodilution method according to the recommendations of the National Committee for Clinical Laboratory Standards (see 1995 manual). The only difference compared to the standardized procedure was the choice of drug dilutions ranging from 100 to 0.09 μg/ml. Briefly, this procedure specifies an inoculum grown at 35° C. and adjusted to a concentration of 0.5-2.5×10^3 CFU/ml with an incubation of the test performed at 35° C. and reading at 48 hours for all yeasts except for C. neoformans which is interpreted at 72 hr.
(§3) Minimum Fungicidal Concentration (MFC) experiments were adapted from a method by McGinnis (McGinnis, M. R., (1980) "Susceptibility testing and bioassay procedure", p. 431, Academic Press, Inc., New York). Briefly, 10 μl aliquots from tubes with growth inhibition were plated onto Sabouraud agar plates. The lowest drug concentration that yielded three or fewer yeasts colonies was recorded as the MFC.
(§4) Antifungal susceptibility testing for compounds set forth in Examples 21-28 is discussed hereinbelow. The fungi that were employed included two quality control reference strains, C. neoformans var. neoformansH99 and C. albicans A39 and the following clinical isolates: (1) four strains of C. neoformans var. neoformans (167.95; 135.95; 114.96; and 133.95) of which three were fluconazole-resistant>64 μg/ml (135.95; 114.96; and 133.95); (2) two strains of C. neoformans var. gattii (119.95 and 114.95); (3) two strains of fluconazole-resistant>64 μg/ml C. albicans (102.96 and 103.96); and (4) one strain each of C. glabrata (142.91), Candida parapsilosis (111.96), Candida krusei (132.91), C. tropicalis (110.96), Candida lusitaniae (111.92), Fusarium solani (152.89), Aspergillus fumigatus (168.95), Rhizopus arrhizus (117.89), Paecilomyces lilacinus (137.90), and Aspergillus flavus (112.96). Antifungal susceptibility testing was performed using an RPMI-1640 medium (Sigma Chemical Co., St. Louis, Mo.) with glutamine, without sodium bicarbonate, and buffered at pH 7.0 with 0.165 M morpholinepropanesulfonic acid (MOPS).
as §3, with “p.431,” for “p. 431,”, “3” for “three”, “MFC. Several drugs were also rescreened with a subculture of 100 μl aliquots from tubes with no growth and there was no change in MFC.” for “MFC.”

C. albicans 103.96 = assay type: cell-based, Candida albicans; conditions: Candida albicans, C. albicans 103.96, fluconazole-resistant
From the text: as §1, §2, §3, §4
as §3, with “p.431,” for “p. 431,”, “3” for “three”, “MFC. Several drugs were also rescreened with a subculture of 100 μl aliquots from tubes with no growth and there was no change in MFC.” for “MFC.”

[1] = test system: Cryptococcus neoformans H99; assay type: cell-based, C. neoformans var. neoformans; conditions: Cryptococcus neoformans H99
From the text: as §1
as §2, with “The only difference compared to the standardized procedure was the choice of drug dilutions ranging from 100 to 0.09 μg/ml.” left out
as §3, with “Briefly, 10 μl aliquots from tubes with growth inhibition were plated onto Sabouraud agar plates.” left out, “MFC. […]” for “MFC.”
(§5) Minimum Fungicidal Concentration (MFC) experiments were adapted from a method by McGinnis (McGinnis, M. R., (1980) "Susceptibility testing and bioassay procedure", p.431, Academic Press, Inc., New York). […] The lowest drug concentration that yielded 3 or fewer yeasts colonies was recorded as the MFC. […]

Candida albicans A39 = assay type: cell-based; conditions: Candida albicans A39
From the text: as §1, §2, §3
(§6) Antifungal susceptibility testing for compounds set forth in Examples 21-28 is discussed hereinbelow. […]
as §5

C. parapsilosis 111.96 = assay type: cell-based, Candida parapsilosis; conditions: Lodderomyces parapsilosis
Procedure: (§7) Antifungal susceptibility testing for compounds set forth in Examples 1-20 is discussed hereinbelow. […]
as §2, with “The only difference compared to the standardized procedure was the choice of drug dilutions ranging from 100 to 0.09 μg/ml.” left out
as §5, with “p. 431,” for “p.431,”, “three” for “3”
as §5

[2] = test system: Torulopsis glabrata 142.91; assay type: cell-based; conditions: Nakaseomyces glabratus
From the text: as §1, §2, §3, §6, §5

C. tropicalis 110.96 = assay type: cell-based; conditions: Candida tropicalis
From the text: as §1, §2, §3, §6, §5

C. krusei 132.91 = assay type: cell-based, Candida krusei; conditions: Pichia kudriavzevii
Procedure: as §7
as §2, with “The only difference compared to the standardized procedure was the choice of drug dilutions ranging from 100 to 0.09 μg/ml.” left out
as §5, with “p. 431,” for “p.431,”, “three” for “3”
as §5

`CC(C)NC(=N)c1ccc2nc(-c3ccc4c(c3)Cc3cc(-c5nc6ccc(C(=N)NC(C)C)cc6[nH]5)ccc3-4)[nH]c2c1` [Compound 57, 2,7-Bis[2-(5-N-isopropylamidino)benzimidazoyl]fluorene hydrochloride] was tested. Which MFC (C. albicans 102.96) did it give?
The MFC was 12.5 µg/mL.

What about the MIC (C. albicans 102.96; 48 hours, read-out: MIC80) of the same molecule?
The MIC was 1.56 µg/mL.

And the MFC (C. albicans 103.96)?
The MFC was 12.5 µg/mL.

And the MIC (C. albicans 103.96; 48 hours, read-out: MIC80)?
The MIC was 1.56 µg/mL.

What about the MFC [1] of the same molecule?
Its MFC is 0.78 µg/mL.

And the MIC ([1]; 72 hr, read-out: MIC80)?
Its MIC is 0.78 µg/mL.

And the MFC (Candida albicans A39)?
Its MFC is 1.56 µg/mL.

And the MIC (Candida albicans A39; 48 hours, read-out: MIC80)?
Its MIC is 0.78 µg/mL.

What about the MFC (C. parapsilosis 111.96) of the same molecule?
The MFC was 0.78 µg/mL.

And the MIC (C. parapsilosis 111.96; 48 hours, read-out: MIC80)?
The MIC was 0.78 µg/mL.

And the MFC [2]?
The MFC was 0.78 µg/mL.

And the MIC ([2]; 48 hours, read-out: MIC80)?
The MIC was 0.78 µg/mL.

And the MFC (C. tropicalis 110.96)?
Its MFC is 1.56 µg/mL.

What about the MIC (C. tropicalis 110.96; 48 hours, read-out: MIC80) of the same molecule?
Its MIC is 0.78 µg/mL.

What about the MFC (C. krusei 132.91) of the same molecule?
Its MFC is 0.78 µg/mL.

What about the MIC (C. krusei 132.91; 48 hours, read-out: MIC80) of the same molecule?
Its MIC is 0.78 µg/mL.
